Read-outs that look alike come from different tables or passages of the source.
Assays:
Format in all cases: biochemical
human-controlled plasma [1] = test: Anticoagulant activity assay: APTT clotting time
Experimental: (§1) 8.2 Methods • (1) Preparation of sample solution: Oligosaccharide compounds A1˜A8, B1˜B11 and oligosaccharide mixtures C1, D1, D2 were all dissolved in Tris-HCl buffer and diluted to the desired series of solubility. • (2) Anticoagulant activity assay: 90 μL of human-controlled plasma was added to the sample or 10 μL of the control solution, and then the clotting time (APTT and PT) was detected by the MC-4000 coagulometer according to the method described in the APTT and PT kit instructions. • (3) Coagulation factor inhibitory activity analysis: […]

human-controlled plasma [2] = test: Anticoagulant activity assay: PT clotting time
Experimental: as §1

intrinsic factor Xase = target: T1, intrinsic factor Xase (Homo sapiens, UniProt P00740); test: Xase inhibitory activity assay
T1 construct: 60 nM FIXa; purchased
T1 sequence (P00740 47-191 limits assumed): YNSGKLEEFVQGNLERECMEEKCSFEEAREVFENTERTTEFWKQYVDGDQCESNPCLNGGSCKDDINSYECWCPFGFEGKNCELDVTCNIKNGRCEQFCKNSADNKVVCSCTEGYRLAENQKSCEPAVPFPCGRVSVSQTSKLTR
T1 sequence (P00740 227-461 limits assumed): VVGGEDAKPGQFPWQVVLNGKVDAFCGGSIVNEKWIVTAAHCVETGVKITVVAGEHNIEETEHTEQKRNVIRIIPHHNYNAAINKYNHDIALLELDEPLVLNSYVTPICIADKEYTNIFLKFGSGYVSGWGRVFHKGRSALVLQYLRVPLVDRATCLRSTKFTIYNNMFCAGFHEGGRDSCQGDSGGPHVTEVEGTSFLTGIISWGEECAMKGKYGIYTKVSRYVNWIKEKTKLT
Experimental: Xase inhibitory activity assay: Detection was performed according to kit instructions and literature methods by combining the Factor VIII and […]. Specifically, to each well of a 96-well plate, 30 μL of test solution, control solution, or Tris-HCl buffer (negative control) was added, and 30 μl of FVIII (2 IU/ml), 30 μl of R2 (60 nM FIXa, containing FIIa, PC/PS, Ca^2+) were sequentially added, mixed by shaking the plate, incubated at 37° C. for 2 min; and then 30 μL of R1 (50 nM FX, containing direct thrombin inhibitor) was added, mixed by shaking the plate, incubated at 37° C. for 1 min; and then 30 μL of R3 (FXa chromogenic substrate SXa-11, about 8.4 mM) was added. The absorbance at 405 nm (OD405) was detected with a microplate reader, continuously measuring for 7.5 min at a interval of 30 s. The Xase activity and IC50 value of Xase inhibition of the test sample were calculated based on the OD405 change value.
(§2) Data processing: The average value of OD405 detected by the duplicated well was used as the detection value of the test sample and the reference of each concentration, and the slope of the linear fit between the detected value to the time value (the change rate of the absorbance value OD405/min) indicated enzymatic activity of coagulation factor. Taking the clotting factor activity of the negative control well as 100%, coagulation factor activity (percentage) in the presence of the test sample was calculated. The coagulation factor activity in the presence of the test sample was plotted against the concentration of the test sample, and fitted according to the following formula, to calculate the IC50 value: B=(IC50)^n/{(IC50)^n+[I]^n}
(§3) in the formula, B is the coagulation factor activity (percentage) in the presence of the test sample, [I] is the concentration of the test sample, IC50 is the half inhibitory concentration (concentration of the test sample required to inhibit 50% of the activity), and n is the Hill coefficient. • (4) Effect on surface activation and platelet activity: […]

plasma = test: TT (thrombin time) clotting time
FXa (Homo sapiens) = target: T2, FXa (Homo sapiens); test: AT-dependent Xa inhibitory activity assay
T2 construct: 8 μg/mL FXa solution; purchased
T2 sequence (P01008 33-464): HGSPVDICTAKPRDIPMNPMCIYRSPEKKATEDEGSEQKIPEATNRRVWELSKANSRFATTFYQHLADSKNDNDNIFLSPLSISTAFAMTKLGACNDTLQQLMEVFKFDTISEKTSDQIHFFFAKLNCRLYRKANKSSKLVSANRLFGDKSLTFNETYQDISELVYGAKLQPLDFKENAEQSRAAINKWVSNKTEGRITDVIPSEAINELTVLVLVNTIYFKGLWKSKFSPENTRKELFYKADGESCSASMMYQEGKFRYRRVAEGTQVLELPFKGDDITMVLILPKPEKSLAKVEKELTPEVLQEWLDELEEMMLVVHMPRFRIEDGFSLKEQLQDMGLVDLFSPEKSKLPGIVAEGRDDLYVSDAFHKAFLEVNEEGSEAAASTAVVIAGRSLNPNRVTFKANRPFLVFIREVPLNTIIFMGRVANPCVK
Experimental: AT-dependent Xa inhibitory activity assay: Heparin […] kit was used for detection. To a 96-well plate, 30 μL of sample, control solution or Tris-HCl buffer (negative control) was added, then 30 μL of 1 IU/mL AT solution was added, mixed well and incubated at 37° C. for 1 min; and than 30 μL of 8 μg/mL FXa solution was added, mixed well and incubated at 37° C. for 1 min, then 30 μL of pre-warmed 1.25 mM Xa chromogenic substrate SXa-11 was added. OD405 was detected by a microplate reader.
as §2, §3

FIIa (Homo sapiens) = target: T3, FIIa (Homo sapiens); test: AT-dependent IIa inhibitory activity assay
T3 construct: antithrombin (i.e., active coagulation factor IIa); purchased
T3 sequence (P01008 33-464): as above
Experimental: AT-dependent IIa inhibitory activity assay: Heparin Anti-FIIa kit was used for detection. To a 96-well plate, 30 μL of sample, control solution or Tris-HCl buffer (negative control) was added, and then 30 μL of 1 IU/mL AT solution was added, mixed well by shaking the plate and incubated at 37° C. for 2 min; 30 μL of 24 IU/mL FIIa solution was added, mixed well by shaking the plate and incubated for 2 min at 37° C., and then 30 μL of pre-warmed 1.25 mM FIIa specific chromogenic substrate CS-01 (38) was added, mixed well by shaking the plate. The OD405 was detected by a microplate reader and the IC50 value of FIIa inhibition of each sample was calculated.
as §2, §3

[3] = read-out: Drug concentration required to inhibit 50% of coagulation factor activity (IC50, ng/mL) Xase (converted)
[4] = in presence of AT; read-out: Drug concentration required to inhibit 50% of coagulation factor activity (IC50, ng/mL) Xa (AT)
[5] = in presence of AT; read-out: Drug concentration required to inhibit 50% of coagulation factor activity (IC50, ng/mL) Ha (AT)
[6] = read-out: Drug concentration required to inhibit 50% of coagulation factor activity (IC50, ng/mL) Xase
[7] = read-out: Drug concentration required to inhibit 50% of coagulation factor activity (IC50, ng/mL) Xa (AT); in presence of AT
[8] = read-out: Drug concentration required to inhibit 50% of coagulation factor activity (IC50, ng/mL) Ha (AT); in presence of AT

SMILES | Drug concentration required for multiplication of coagulation time (μg/mL) APTT (human-controlled plasma [1]) | Drug concentration required for multiplication of coagulation time (μg/mL) PT (human-controlled plasma [2]) | IC50 (intrinsic factor Xase; [3]) | Drug concentration required for multiplication of coagulation time (μg/mL) TT (plasma) | IC50 (FXa (Homo sapiens); [4]) | IC50 (FIIa (Homo sapiens); [5]) | IC50 (intrinsic factor Xase; [6]) | IC50 (FXa (Homo sapiens); [7]) | IC50 (FIIa (Homo sapiens); [8])
CC(=O)NC1C(OC2C(C(=O)O)OC(OC3C(NC(C)=O)C(OC(C(O)C(=O)O)C(OC4OC(C)C(OS(=O)(=O)O)C(OS(=O)(=O)O)C4O)C(O)CO)OC(COS(=O)(=O)O)C3OS(=O)(=O)O)C(O)C2OC2OC(C)C(OS(=O)(=O)O)C(OS(=O)(=O)O)C2O)OC(COS(=O)(=O)O)C(OS(=O)(=O)O)C1OC1OC(C(=O)O)=CC(OC2OC(C)C(OS(=O)(=O)O)C(OS(=O)(=O)O)C2O)C1O [Compound B2, L-Fuc3S4S-(α1,3)-L-ΔUA-(α1,3)-{D-GalNAc4S6S-(β1,4)-[L-Fuc3S4S-(α1,3)]-D-GlcA-(β1,3)}˜-D-GalNAc4S6S-(β1,4)-[L-Fuc3S4S-(α1,3)]-D-GlcA-ol] | 7.5 µg/mL | # (>128 μg/mL) | 29.5 nM | # (>128 μg/mL) | > 2300 nM | > 2300 nM | – | – | –
CC(=O)NC1C(OC2C(C(=O)O)OC(OC3C(NC(C)=O)C(OC4C(C(=O)O)OC(OC5C(NC(C)=O)C(OC(C(O)C(=O)O)C(OC6OC(C)C(OS(=O)(=O)O)C(OS(=O)(=O)O)C6O)C(O)CO)OC(COS(=O)(=O)O)C5OS(=O)(=O)O)C(O)C4OC4OC(C)C(OS(=O)(=O)O)C(OS(=O)(=O)O)C4O)OC(COS(=O)(=O)O)C3OS(=O)(=O)O)C(O)C2OC2OC(C)C(OS(=O)(=O)O)C(OS(=O)(=O)O)C2O)OC(COS(=O)(=O)O)C(OS(=O)(=O)O)C1OC1OC(C(=O)O)=CC(OC2OC(C)C(OS(=O)(=O)O)C(OS(=O)(=O)O)C2O)C1O [Compound B3, L-Fuc3S4S-(α1,3)-L-ΔUA-(α1,3)-{D-GalNAc4S6S-(β1,4)-[L-Fuc3S4S-(α1,3)]-D-GlcA-(β1,3)}˜-D-GalNAc4S6S-(β1,4)-[L-Fuc3S4S-(α1,3)]-D-GlcA-ol] | 6.1 µg/mL | # (>128 μg/mL) | 10.3 nM | # (>128 μg/mL) | > 1650 nM | > 1650 nM | – | – | –
CC(=O)NC1C(OC2C(C(=O)O)OC(OC3C(NC(C)=O)C(OC4C(C(=O)O)OC(OC5C(NC(C)=O)C(OC6C(C(=O)O)OC(OC7C(NC(C)=O)C(OC(C(O)C(=O)O)C(OC8OC(C)C(OS(=O)(=O)O)C(OS(=O)(=O)O)C8O)C(O)CO)OC(COS(=O)(=O)O)C7OS(=O)(=O)O)C(O)C6OC6OC(C)C(OS(=O)(=O)O)C(OS(=O)(=O)O)C6O)OC(COS(=O)(=O)O)C5OS(=O)(=O)O)C(O)C4OC4OC(C)C(OS(=O)(=O)O)C(OS(=O)(=O)O)C4O)OC(COS(=O)(=O)O)C3OS(=O)(=O)O)C(O)C2OC2OC(C)C(OS(=O)(=O)O)C(OS(=O)(=O)O)C2O)OC(COS(=O)(=O)O)C(OS(=O)(=O)O)C1OC1OC(C(=O)O)=CC(OC2OC(C)C(OS(=O)(=O)O)C(OS(=O)(=O)O)C2O)C1O [Compound B4, L-Fuc3S4S-(α1,3)-L-ΔUA-(α1,3)-{D-GalNAc4S6S-(β1,4)-[L-Fuc3S4S-(α1,3)]-D-GlcA-(β1,3)}˜-D-GalNAc4S6S-(β1,4)-[L-Fuc3S4S-(α1,3)]-D-GlcA-ol] | 4.5 µg/mL | # (>128 μg/mL) | – | # (>128 μg/mL) | – | – | 5.33 nM | > 1290 nM | > 1290 nM
CC(=O)NC1C(OC2C(C(=O)O)OC(OC3C(NC(C)=O)C(OC4C(C(=O)O)OC(OC5C(NC(C)=O)C(OC6C(C(=O)O)OC(OC7C(NC(C)=O)C(OC8C(C(=O)O)OC(OC9C(NC(C)=O)C(OC(C(O)C(=O)O)C(OC%10OC(C)C(OS(=O)(=O)O)C(OS(=O)(=O)O)C%10O)C(O)CO)OC(COS(=O)(=O)O)C9OS(=O)(=O)O)C(O)C8OC8OC(C)C(OS(=O)(=O)O)C(OS(=O)(=O)O)C8O)OC(COS(=O)(=O)O)C7OS(=O)(=O)O)C(O)C6OC6OC(C)C(OS(=O)(=O)O)C(OS(=O)(=O)O)C6O)OC(COS(=O)(=O)O)C5OS(=O)(=O)O)C(O)C4OC4OC(C)C(OS(=O)(=O)O)C(OS(=O)(=O)O)C4O)OC(COS(=O)(=O)O)C3OS(=O)(=O)O)C(O)C2OC2OC(C)C(OS(=O)(=O)O)C(OS(=O)(=O)O)C2O)OC(COS(=O)(=O)O)C(OS(=O)(=O)O)C1OC1OC(C(=O)O)=CC(OC2OC(C)C(OS(=O)(=O)O)C(OS(=O)(=O)O)C2O)C1O [Compound B5, L-Fuc3S4S-(α1,3)-L-ΔUA-(α1,3)-{D-GalNAc4S6S-(β1,4)-[L-Fuc3S4S-(α1,3)]-D-GlcA-(β1,3)}˜-D-GalNAc4S6S-(β1,4)-[L-Fuc3S4S-(α1,3)]-D-GlcA-ol] | 4.0 µg/mL | # (>128 μg/mL) | – | # (>128 μg/mL) | – | – | 4.2 nM | > 1060 nM | > 1060 nM
CC(=O)NC1C(OC2C(C(=O)O)OC(OC3C(NC(C)=O)C(OC4C(C(=O)O)OC(O)C(O)C4OC4OC(C)C(OS(=O)(=O)O)C(OS(=O)(=O)O)C4O)OC(COS(=O)(=O)O)C3OS(=O)(=O)O)C(O)C2OC2OC(C)C(OS(=O)(=O)O)C(OS(=O)(=O)O)C2O)OC(COS(=O)(=O)O)C(OS(=O)(=O)O)C1OC1OC(C(=O)O)=CC(OC2OC(C)C(OS(=O)(=O)O)C(OS(=O)(=O)O)C2O)C1O [Compound B7, L-Fuc3S4S-(α1,3)-L-ΔUA-(α1,3)-{D-GaNAc4S6S-(β1,4)-[L-Fuc3S4S-(α1,3)]-D-GlcA-(β1,4)}˜-D-GalNAc4S6S-(β1,4)-[L-Fuc3S4S-(α1,3)]-D-GlcA] | 7.3 µg/mL | # (>128 μg/mL) | 26.8 nM | # (>128 μg/mL) | > 2300 nM | > 2300 nM | – | – | –
CC(=O)NC1C(OC2C(C(=O)O)OC(OC3C(NC(C)=O)C(OC4C(C(=O)O)OC(OC5C(NC(C)=O)C(OC6C(C(=O)O)OC(O)C(O)C6OC6OC(C)C(OS(=O)(=O)O)C(OS(=O)(=O)O)C6O)OC(COS(=O)(=O)O)C5OS(=O)(=O)O)C(O)C4OC4OC(C)C(OS(=O)(=O)O)C(OS(=O)(=O)O)C4O)OC(COS(=O)(=O)O)C3OS(=O)(=O)O)C(O)C2OC2OC(C)C(OS(=O)(=O)O)C(OS(=O)(=O)O)C2O)OC(COS(=O)(=O)O)C(OS(=O)(=O)O)C1OC1OC(C(=O)O)=CC(OC2OC(C)C(OS(=O)(=O)O)C(OS(=O)(=O)O)C2O)C1O [Compound B8, L-Fuc3S4S-(α1,3)-L-ΔUA-(α1,3)-{D-GaNAc4S6S-(β1,4)-[L-Fuc3S4S-(α1,3)]-D-GlcA-(β1,4)}˜-D-GalNAc4S6S-(β1,4)-[L-Fuc3S4S-(α1,3)]-D-GlcA] | 5.8 µg/mL | # (>128 μg/mL) | 9.8 nM | # (>128 μg/mL) | > 1660 nM | > 1660 nM | – | – | –

From patent US12280072B2, “Oligosaccharide compound for inhibiting intrinsic coagulation factor X-enzyme complex, and preparation method therefor and uses thereof” (Jiuzhitang Co., Ltd., priority 2017, dated 2025)
